In patent US5607926A, “Cephalosporin antibiotics” (Microcide Pharmaceuticals, Inc., priority 1995, dated 1997):
In brackets after ≈: the same amount, converted by molar mass. Read-outs that look alike come from different tables or passages of the source.

Experiments:
[1] = system: methicillinsusceptible S. aureus strain ATCC 13709; experiment: Challenge strain MIC; format: cell-based; conditions: Staphylococcus aureus, ATCC13709, S. aureus ATCC 13709; read-out: Challenge str MIC
Description: The compounds of the invention were evaluated against several β-lactamresistant bacteria strains by determining the minimum inhibitory concentration (MIC, μg/ml) of each compound with respect to each strain. The MIC, the lowest concentration of antibiotic which inhibits growth of the test organism, was determined by the agar dilution method.
To determine the MIC for bacterial isolates, the test compound was incorporated in a series of two-fold dilutions into liquified Mueller-Hinton agar. Upon solidification, a number of different bacterial strains were spot inoculated with a replicating device onto the agar surface. […] The procedures used in these studies have been standardized by the National Committee for Clinical Laboratory Standards (NCCLS), as per the NCCLS publication entitled METHODS FOR DILUTION ANTIMICROBIAL SUSCEPTIBILITY TESTS (1991), which is incorporated herein by reference.
Aliquots of antimicrobial agents were prepared in phosphate buffered saline (PBS) at pH 7.2. Tween 20 or DMSO was used as a solubilizing vehicle as needed. Standard methods of vortexing, sonicating and gentle heat were used to facilitate solubilizing the test agent. Typically, the concentration of the stock solution was 10× that of the highest drug concentration tested. A 1.28 mg/mL stock solution was used with a subsequent highest working concentration of 128 μg/mL. Serial two-fold dilutions were done through ≤0.25 μg/mL. Each drug level was tested in duplicate. Two-fold drug dilutions were done in sterile 50 mL tubes with a final drug volume of 5 mL. Upon the addition of 45 mL of molten agar, a 10-fold dilution resulted. Two, 25 mL. plates were then poured into 15×150 mm square Petri plates with grids and allowed to harden.
A control plate with a reference drug, either cefotaxime, vancomycin or imipenem, was used as the positive growth control. Stock concentrations of reference antibiotics were prepared and frozen at -80° C. Upon preparation, the control plates were sealed and stored in the refrigerator for up to 1 week prior to use; however, imipenem control plates had to be prepared just prior to use. All test plates were used within 24 hours of preparation.
Satisfactory results were obtained where the inoculum contained about 10^4 colony forming units (cfu) ±0.5 logs. Starting with pure cultures of the test isolates on agar plates, a few isolated colonies were transferred to a tube of nutrient broth and allowed to grow 4-6 hours at 35°-36° C. to reach log-phase growth. Dropwise addition of the broth culture to PBS was done to match a 0.5 McFarland turbidity standard equal to 10^8 cfu/mL. This was further diluted ten-fold in PBS to reach a working inoculum concentration of 10^7 cfu/mL. When 1 μL of the working inoculum was applied to the agar surface a concentration of about 10^4 cfu per spot was obtained.
Disposable sterile 1 μL loops were used to inoculate test plates, with each isolate in a designated grid on the agar plate. An alternate method of inoculation involved the use of a replica plater, a device with 48 steel pins allowing the simultaneous inoculation of multiple isolates. After the spots had dried, the plates were incubated at 35°-36° C. for 16-20 hours. Endpoints were assessed as the minimum inhibitory concentration (MIC) of antimicrobial agent.
(§1) data reported for challenge with methicillinsusceptible S. aureus strain

S. aureus ATCC 29213 = experiment: In vitro antibacterial evaluation, MIC by agar dilution, S. aureus ATCC 29213; format: cell-based; conditions: Staphylococcus aureus, ATCC29213
Procedure, shortened: (§2)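 In this standardized agar dilution format, compound was dissolved in PBS pH 7.2, with Tween 20 or DMSO as needed, and mixed into molten Mueller-Hinton agar to final levels of 128 down to ≤0.25 μg/mL. About 10^4 cfu were spotted per isolate, and MIC was recorded after 16-20 h at 35°-36° C.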

[2] = system: methicillinsusceptible S. aureus strain ATCC 13709; experiment: In vivo antibacterial evaluation, murine model for lethal bacteremic peritonitis; parameters: species or system S. aureus in female Swiss-Webster mice; conditions: Staphylococcus aureus, ATCC13709, sc, 72 h, two equal SC doses at challenge and 2 hours later, mice, probit, read-out: ED50
Description: Groups of 5 female Swiss-Webster mice (Simonsen, Gilroy, Calif.) each are challenged by the intraperitoneal (IP) route with ten-fold increments of a bacterial inoculum. This permits calculation of the mean lethal dose (LD50) and the LD100. For preliminary evaluation of a new antibiotic, mice are challenged IP with an LD100 titer of bacteria. In two equal doses administered at the time of bacterial challenge and 2 hours later, groups of 10 mice each are treated subcutaneously with two-fold increments of the test drug and an antibiotic of known efficacy in mice and humans (i.e., positive control). Mice are observed for 72 h. Those alive at 72 h are considered long term survivors. The total drug dose in mg/kg that protects 50% of mice in a group from death is termed the mean protective dose (PD50). PD50 s are similarly determined for several pathogens. The quantitative endpoints for the new drug are then compared with those obtained with reference antibiotics.
Six ten-fold dilutions of inoculum suspended in 0.5 mL of sterilized 7% hog gastric mucin (Sigma) are injected IP in groups of 5 mice each. A control group of 5 mice receive mucin alone. Mice are observed for 72 h. Those alive at 72 h are considered long term survivors. The mean lethal dose (LD50) and 100% lethal dose (LD100) are determined by the probit test.
For antibiotic efficacy studies, mice are challenged IP with bacterial titers that will afford an LD100 for the test strain. In two equal doses administered at the time of bacterial challenge and 2 hours later, groups of 10 mice each are treated by the subcutaneous route (SC) with twofold increments of the test antibiotic; another group is treated similarly with a reference antibiotic of known efficacy in animals and man. Drug doses can range from 0.01 to 512 mg/kg. If the drug is poorly soluble, Tween 20 or propylene glycol will be employed to solubilize the drug. Animals are observed for 72 h. The 50% protective dose (PD50) is calculated in mg/kg by the probit method. The PD50 is the same as the 50% effective dose (ED50) and the 50% curative dose (CD50). Samples of blood from the hearts of all animals that die and from half the mice that survive are cultured on brain-heart infusion agar. Animals that received a protective dosage of the test drug will be alive at 72 h, although they may appear moderately ill to very ill during the observation period. […] Most of these mice will die within 6 to 48 h. Those alive at 72 h will be considered long term survivors.
as §1

[3] = system: S. epidermidis ATCC 31432; experiment: In vitro antibacterial evaluation, MIC by agar dilution, S. epidermidis ATCC 31432; format: cell-based; conditions: Staphylococcus epidermidis, ATCC31432
Procedure, shortened: as §2

S. haemolyticus (Meth^R) = experiment: In vitro antibacterial evaluation, MIC by agar dilution, S. haemolyticus; format: cell-based; conditions: Staphylococcus haemolyticus, read-out: MIC
Procedure, shortened: as §2

E. faecium ATCC 35667 = experiment: In vitro antibacterial evaluation, MIC by agar dilution, E. faecium ATCC 35667; format: cell-based; conditions: Enterococcus faecium, ATCC35667, read-out: MIC
Procedure, shortened: as §2

[4] = system: S. aureus Col8A (Meth^S)(lac^-); experiment: In vitro antibacterial evaluation, MIC by agar dilution, S. aureus Col8A; format: cell-based; conditions: Staphylococcus aureus
Procedure, shortened: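 Log-phase isolates were spot-inoculated at about 10^4 cfu onto Mueller-Hinton agar carrying duplicate two-fold compound levels, 128 μg/mL to ≤0.25 μg/mL, following NCCLS (1991). Plates were read after 16-20 h at 35°-36° C. The lowest growth-inhibiting concentration gave the MIC (μg/ml).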

E. coli ATCC 25922 = experiment: In vitro antibacterial evaluation, MIC by agar dilution, E. coli ATCC 25922; format: cell-based; conditions: Escherichia coli, ATCC25922, read-out: MIC
Procedure, shortened: as §2

[5] = system: S. aureus 76 (Meth^R)(lac^+); experiment: In vitro antibacterial evaluation, MIC by agar dilution, S. aureus 76; format: cell-based; conditions: Staphylococcus aureus, read-out: MIC
Procedure, shortened: as §2

S. aureus ATCC 25923 = experiment: In vitro antibacterial evaluation, MIC by agar dilution, S. aureus ATCC 25923; format: cell-based; conditions: Staphylococcus aureus, ATCC25923
Procedure, shortened: as §2

E. faecalis ATCC 29212 = experiment: In vitro antibacterial evaluation, MIC by agar dilution, E. faecalis ATCC 29212; format: cell-based; conditions: Enterococcus faecalis, ATCC29212
Procedure, shortened: as §2

P. aeruginosa ATCC 27853 = experiment: In vitro antibacterial evaluation, MIC by agar dilution, P. aeruginosa ATCC 27853; format: cell-based; conditions: Pseudomonas aeruginosa, ATCC27853, read-out: MIC
Procedure, shortened: as §2

[6] = E. faecalis ATCC 29212, read-out: MIC
[7] = S. aureus ATCC 29213, read-out: MIC

SMILES | MIC [1] | MIC (S. aureus ATCC 29213) | ED50 [2] | MIC [3] | MIC (S. haemolyticus (Meth^R)) | MIC (E. faecium ATCC 35667) | MIC [4] | MIC (E. coli ATCC 25922) | MIC [5] | MIC (S. aureus ATCC 25923) | MIC (E. faecalis ATCC 29212; [6]) | MIC (P. aeruginosa ATCC 27853) | MIC (S. aureus ATCC 29213; [7]) | MIC (E. faecalis ATCC 29212)
N#CCC(=O)N[C@@H]1C(=O)N2C(C(=O)O)=C(Sc3ccccc3I)CS[C@H]12 [Cmpd 17, (7R)-7-[(Cyanoacetyl)amino]-3-(o-iodophenylthio)-3-cephem-4-carboxylic acid] | 0.125 µg/mL (≈ 0.249 µM) | < 0.25 µg/mL | 3.41 mg/kg | < 0.25 µg/mL | 8 µg/mL (≈ 16 µM) | 1 µg/mL (≈ 1.99 µM) | < 0.25 µg/mL | > 64 µg/mL | 4 µg/mL (≈ 7.98 µM) |  |  |  |  | 
N#Cc1ccccc1SC1=C(C(=O)O)N2C(=O)[C@@H](NC(=O)Cc3ccccc3)[C@H]2SC1 [Cmpd 41, (7R)-7-[(Phenylacetyl)amino]-3-(2-cyanophenylthio)-3-cephem-4-carboxylic acid] | 0.06 µg/mL (≈ 0.133 µM) |  | 1.13 mg/kg | < 0.25 µg/mL | 16 µg/mL (≈ 35.4 µM) | 2 µg/mL (≈ 4.43 µM) | < 0.25 µg/mL | > 32 µg/mL | 4 µg/mL (≈ 8.86 µM) | < 0.25 µg/mL | 4 µg/mL (≈ 8.86 µM) | > 32 µg/mL |  | 
O=C(Cc1ccccc1)N[C@@H]1C(=O)N2C(C(=O)O)=C(Sc3cccnc3-c3ccccc3)CS[C@H]12 [Cmpd 81, (7R)-7-[(Phenylacetyl)amino]-3-(2-phenylpyridin-3-ylthio)-3-cephem-4-carboxylic acid] | 0.125 µg/mL (≈ 0.248 µM) |  | 8.46 mg/kg | < 0.25 µg/mL | 16 µg/mL (≈ 31.8 µM) | 1 µg/mL (≈ 1.99 µM) | < 0.25 µg/mL | > 32 µg/mL | 4 µg/mL (≈ 7.94 µM) | < 0.25 µg/mL | 2 µg/mL (≈ 3.97 µM) | > 32 µg/mL |  | 
O=C(Cc1ccccc1)N[C@@H]1C(=O)N2C(C(=O)O)=C(Sc3ccnn3-c3ccccc3)CS[C@H]12 [Cmpd 87, (7R)-7-[(Phenylacetyl)amino]-3-(1-N-phenylpyrazol-5-ylthio)-3-cephem-4-carboxylic acid] | 0.06 µg/mL (≈ 0.122 µM) |  | 1.89 mg/kg | < 0.25 µg/mL | 16 µg/mL (≈ 32.5 µM) | 1 to 2 µg/mL (≈ 2.03 to 4.06 µM) | < 0.25 µg/mL | > 32 µg/mL | 4 µg/mL (≈ 8.12 µM) | < 0.25 µg/mL | 2 µg/mL (≈ 4.06 µM) | > 32 µg/mL |  | 
O=C(CSc1ccccc1)N[C@@H]1C(=O)N2C(C(=O)O)=C(Sc3ccnn3-c3ccccc3)CS[C@H]12 [Cmpd 119, (7R)-7-[(phenylthioacetyl)amino]-3-(1-N-phenylpyrazol-5-ylthio)-3-cephem-4-carboxylic acid] | 0.25 µg/mL (≈ 0.477 µM) |  | > 5 mg/kg |  | 16 µg/mL (≈ 30.5 µM) | 1 µg/mL (≈ 1.91 µM) | 0.06 µg/mL (≈ 0.114 µM) | > 32 µg/mL | 8 µg/mL (≈ 15.2 µM) |  | 1 µg/mL (≈ 1.91 µM) | > 32 µg/mL | 0.125 µg/mL (≈ 0.238 µM) | 
N#CCSCC(=O)N[C@@H]1C(=O)N2C(C(=O)O)=C(Sc3ccnn3-c3ccccc3)CS[C@H]12 [Cmpd 122, (7R)-7-[(cyanomethylthioacetyl)amino]-3-(1-N-phenylpyrazol-5-ylthio)-3-cephem-4-carboxylic acid] | 0.125 µg/mL (≈ 0.256 µM) | 0.25 µg/mL (≈ 0.513 µM) | 1.13 mg/kg |  | 16 µg/mL (≈ 32.8 µM) | 4 µg/mL (≈ 8.2 µM) | 0.25 µg/mL (≈ 0.513 µM) | > 32 µg/mL | 8 µg/mL (≈ 16.4 µM) |  | 4 µg/mL (≈ 8.2 µM) | > 32 µg/mL |  | 
O=C(O)C1=C(Sc2ccnn2-c2ccccc2)CS[C@@H]2[C@H](NC(=O)/C(=N\O)c3ccccc3)C(=O)N12 [Cmpd 130, (7R)-7-[(Z)-2-(Phenyl)-2-(hydroxyimino)acetamido]-3-(1-N-(phenyl)pyrazol-5-ylthio)-3-cephem-4-carboxylic acid] | 0.125 µg/mL (≈ 0.24 µM) |  | > 10 mg/kg |  | 4 µg/mL (≈ 7.67 µM) | 0.5 µg/mL (≈ 0.959 µM) | 0.25 µg/mL (≈ 0.479 µM) | > 32 µg/mL | 4 µg/mL (≈ 7.67 µM) |  |  | > 32 µg/mL | 0.125 µg/mL (≈ 0.24 µM) | 0.25 µg/mL (≈ 0.479 µM)
